Laboratory results: ChEMBL document CHEMBL1135774 (J Med Chem, 2002)

Assays:
[1] = pKa value of the compound; format: physicochemical
[2] = target: cGMP-specific 3',5'-cyclic phosphodiesterase (Homo sapiens, UniProt O76074); assay: Phosphodiesterase 5 activity of human corpus cavernosum
[3] = pKa of the compound; format: physicochemical
[4] = system: Canis familiaris; assay: In vivo efficacy in dogs.; format: functional; details: Canis lupus familiaris
[5] = species on record: Homo sapiens; assay: Selectivity for human retinal cone PDE-6 and human corpus cavernosum PDE-5
[6] = system: Canis familiaris; assay: In vivo effect on erectile dysfunction in dogs after intravenous dose; format: functional; details: Canis lupus familiaris
[7] = Oral bioavailability in rat; format: ADME, organism-based; details: in vivo
[8] = system: Canis familiaris; assay: In vivo efficacy in dogs; format: functional; details: Canis lupus familiaris

Row | Ki [2] | Ratio [5] | SMILES | further results
1 | 8.86 nM | – | COc1ccc(-c2cnc(N3CC(=O)c4c([nH]c5ccccc45)C3c3ccc4c(c3)OCO4)nc2)cc1OC (stereo not drawn) | pKa [1]: ~14
2 | 0.29 nM | – | Oc1c2c(nc3ccccc13)C(c1ccc3c(c1)CCO3)N(c1ncc(-c3ccc(OCCN4CCOCC4)cc3)cn1)C2 (stereo not drawn) | –
3 | 0.21 nM | 0.59 | COc1ccc(-c2cnc(N3Cc4c(nc5ccccc5c4O)[C@H]3c3ccc4c(c3)OCO4)nc2)cc1OC | pKa [3]: 9; ED50 [4]: 0.0224 mg/kg
4 | 1.2 nM | 7.4 | Oc1c2c(nc3ccccc13)C(c1ccc3c(c1)OCO3)N(c1ncccn1)C2 (stereo not drawn) | –
5 | 1.08 nM | 310 | Oc1c2c(nc3ccccc13)C(c1ccc3c(c1)CCO3)N(c1ncccn1)C2 (stereo not drawn) | –
6 | 0.23 nM | 27 | COc1ccc(-c2cnc(N3Cc4c(nc5ccccc5c4O)[C@H]3c3ccc4c(c3)CCO4)nc2)cc1 | ED50 [6]: 9.6 µg/kg
7 | 0.4 nM | 55.9 | COc1ccc(-c2cnc(N3Cc4c(nc5ccccc5c4O)C3c3ccc4c(c3)CCO4)nc2)cc1 (stereo not drawn) | bioavailability [7]: 20%
8 | 0.53 nM | – | CCN(CC)CCOc1ccc(-c2cnc(N3Cc4c(nc5ccccc5c4O)C3c3ccc4c(c3)CCO4)nc2)cc1 (stereo not drawn) | –
9 | 0.52 nM | 3.07 | COc1ccc(-c2cnc(N3Cc4c(nc5ccccc5c4O)C3c3ccc4c(c3)OCCO4)nc2)cc1 (stereo not drawn) | –
10 | 24.7 nM | – | COc1ccc(-c2cnc(N3Cc4c(nc5ccccc5c4O)C3c3ccc(OC)c(OC)c3)nc2)cc1OC (stereo not drawn) | –
11 | 0.31 nM | 18.5 | COc1ccc(-c2cnc(N3Cc4c(nc5ccccc5c4O)C3c3ccc4c(c3)OCO4)nc2)cc1 (stereo not drawn) | –
12 | – | – | CCCc1nn(C)c2c(=O)[nH]c(-c3cc(S(=O)(=O)N4CCN(C)CC4)ccc3OCC)nc12 | ED50 [8]: 5.1 µg/kg; bioavailability [7]: 11%
13 | 1.14 nM | 2.14 | COc1ccc(-c2cnc(N3Cc4c(nc5ccccc5c4O)C3c3ccc4c(c3)CCC4)nc2)cc1OC (stereo not drawn) | –
14 | 1.75 nM | – | Oc1ccc(-c2cnc(N3Cc4c(nc5ccccc5c4O)C3c3ccc4c(c3)CCO4)nc2)cc1 (stereo not drawn) | –
